In patent US8198274B2, “Substituted indolyl and indazolyl derivatives and uses thereof” (Roche Palo Alto LLC, priority 2008, dated 2012):

Key:
[1] = target: T1, human dopamine transporter (hDAT) (Homo sapiens, UniProt Q01959); test: Screening for compounds active at human dopamine transporter (hDAT), scintillation proximity assay, competition with [3H]-Vanoxerine; type: binding; details: HEK-293 cells, SPA
T1 construct: expressed in transfected cells
Experimental: This assay was used to determine the affinity of ligands for the dopamine transporter by competition with [^3H]-Vanoxerine.
HEK-293 cells (Tatsumi et al., Eur. J. Pharmacol. 1997, 30, 249-258) stably expressing recombinant hDAT were maintained with media (DMEM hi glucose with 10% FBS, 300 μg/ml G418 and 2 mM L-Glutamine) and incubated at 37° C. with 5% CO2. Cells were plated four hours prior to experiment by placing approximately 30,000 cells per well (in PBS) on white, opaque Cell-Tak coated 96 well plates. Extra buffer was apriated from the cell plates using an ELx405 plate washer.
^3[H] vanoxerine (GBR 12909) radioligand, specific activity approximately 59 Ci/mmol, stock concentration, 400 nM, and 50 mM Tris-HCl, 300 mM NaCl, (pH 7.4) buffers were used for Scintillation Proximity Assay IC50/Ki determination. […]
The % inhibition was calculated for each compound tested [(Compound CPM at maximum concentration-Non-Specific CPM)/Total CPM*100]. […]
[formula] where max=total binding, min=non specific binding, x=concentration (M) of the tested compound and n=Hill slope. The inhibition dissociation constant (Ki) of each compound was determined according to the method of Cheng-Prusoff and then converted into negative logarithm (pKi) of the Ki.

[2] = target: T2, human norepinephrine transporter (hNET) (Homo sapiens, UniProt P23975); test: Screening for compounds active at human norepinephrine transporter (hNET), scintillation proximity assay, competition with [3H]-Nisoxetine; type: binding; details: membranes of HEK-293 cells, SPA
T2 construct: expressed in transfected cells
T2 sequence (P23975 whole entry): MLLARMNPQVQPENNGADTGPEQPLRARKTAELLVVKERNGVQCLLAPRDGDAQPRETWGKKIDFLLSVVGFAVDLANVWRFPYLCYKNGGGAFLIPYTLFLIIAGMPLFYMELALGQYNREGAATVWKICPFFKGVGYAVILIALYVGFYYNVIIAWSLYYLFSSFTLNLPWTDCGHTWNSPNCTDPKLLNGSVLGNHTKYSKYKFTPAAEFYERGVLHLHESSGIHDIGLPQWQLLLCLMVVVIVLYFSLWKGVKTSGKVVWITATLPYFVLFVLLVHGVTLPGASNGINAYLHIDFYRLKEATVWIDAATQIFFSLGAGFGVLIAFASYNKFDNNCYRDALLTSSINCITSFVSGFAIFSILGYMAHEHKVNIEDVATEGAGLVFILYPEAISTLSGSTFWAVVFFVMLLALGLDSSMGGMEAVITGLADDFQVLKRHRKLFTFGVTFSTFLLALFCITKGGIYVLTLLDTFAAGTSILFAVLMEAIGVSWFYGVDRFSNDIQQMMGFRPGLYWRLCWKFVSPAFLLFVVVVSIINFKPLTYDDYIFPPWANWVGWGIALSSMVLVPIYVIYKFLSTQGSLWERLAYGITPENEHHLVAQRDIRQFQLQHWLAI
Experimental: This assay was used to determine the affinity of ligands for the hNET transporter by competition with [^3H]-Nisoxetine. As in the hSERT assay of the above example, receptor-containing membranes were pre-coupled to the SPA beads and the binding of the appropriate radioligand to the transporter was measured. The light emission was proportional to the amount of bound radioligand, with unbound radioligand producing no signal.
HEK-293 cells (Tatsumi et al., Eur. J. Pharmacol. 1997, 30, 249-258) stably expressing recombinant hNET (Clone: HEK-hNET #2) were maintained with media (DMEM hi glucose with 10% FBS, 300 μg/ml G418 and 2 mM L-Glutamine) and incubated at 37° C. with 5% CO2. Cells were released from culture flasks using PBS for 1-2 minutes. […]
Cell membranes were prepared using a membrane preparation buffer of 50 mM TRIS (pH 7.4). […] After a second centrifugation, the pellet was re-homogenized and brought to a final volume determined during the assay. […]
^3[H] […] The mixtures were allowed to stand at room temperature for one hour, and were then counted on a Packard TopCount LCS, a generic SPA counting protocol settings (Energy Range: Low, Efficiency Mode: Normal, Region A: 1.50-35.00, Region B: 1.50-256.00, Count Time (min.): 0.40, Background Subtract: none, Half-Life Correction: no, Quench Indicator: tSIS, Platemap blank subtraction: No, Cross talk reduction: Off). […]

T1 sequence (Q01959 whole entry): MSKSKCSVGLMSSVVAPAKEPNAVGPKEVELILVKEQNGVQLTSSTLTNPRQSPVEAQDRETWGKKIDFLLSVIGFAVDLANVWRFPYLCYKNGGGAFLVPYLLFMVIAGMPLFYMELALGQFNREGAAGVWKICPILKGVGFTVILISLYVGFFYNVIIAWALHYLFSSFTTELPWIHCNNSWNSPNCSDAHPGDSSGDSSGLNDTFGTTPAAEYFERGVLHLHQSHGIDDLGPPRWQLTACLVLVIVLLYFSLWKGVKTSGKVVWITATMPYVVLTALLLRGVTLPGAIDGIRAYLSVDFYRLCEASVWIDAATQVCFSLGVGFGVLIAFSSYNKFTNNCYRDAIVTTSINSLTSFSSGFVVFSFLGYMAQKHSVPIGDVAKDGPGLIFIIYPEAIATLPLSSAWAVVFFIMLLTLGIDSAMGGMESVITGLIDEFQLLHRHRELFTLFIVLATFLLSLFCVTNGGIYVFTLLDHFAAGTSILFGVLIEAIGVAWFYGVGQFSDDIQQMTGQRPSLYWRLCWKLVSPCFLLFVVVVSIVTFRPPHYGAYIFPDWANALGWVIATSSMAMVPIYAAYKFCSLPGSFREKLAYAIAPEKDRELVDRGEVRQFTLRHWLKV

Ki [1]: ~5.01 nM
Ki [2]: ~3.98 nM
Compound: CNCc1ccccc1Cc1ccc2[nH]c(C(N)=O)cc2c1 [Compound 40, 5-(2-Methylaminomethyl-benzyl)-1H-indole-2-carboxylic acid amide]
